The record followed here is patent publication US8133880B2, “Purine derivatives and methods of use thereof” (Inotek Pharmaceuticals Corporation, priority 2004, dated 2012).

Common to all, as to type: in vivo
Assay [1] concerns BALB/c mice. Briefly: Asthma-associated inflammation: OVA aerosol exposure and bronchioalveolar lavage. The protocol: Four-week old male, viral-antibody-free BALB/c mice (Jackson Laboratory, Bar Harbor, Me.) were intraperitoneally immunized with 10 μg ovalbumin (“OVA,” Grade III, Sigma Chemical Co., St. Louis, Mo.) and 1 mg alum (diluted from 2% Alhydrogel; Accurate Sci. Corp., Westbury, N.Y.) in 0.5 mL phosphate-buffered saline (“PBS”) on days 0 and 7. Control mice received 1 mg alum in PBS solution on days 0 and 7.
On day 14, both immunized mice and control mice received a single aerosol exposure to 3% OVA (in PBS) for 30 minutes, followed by intraperitoneal administration of Compound 34 (5 μg per mouse in 0.2 mL buffer solution). About 18 hours after treatment, the mice were sacrificed and bronchioalveolar lavage (“BAL”) was performed on their lungs. The fluid obtained from the mice via the BAL procedure was analyzed and the inflammatory cell counts and level of inflammatory mediators in the fluid samples was measured as described in Virag et al., Med. Sci. Monit. 10:BR77-83 (2004).
On day 14, both immunized mice and control mice received a single aerosol exposure to 3% OVA (in PBS) for 30 minutes, followed by intraperitoneal administration of Compound 24 (5 μg per mouse in 0.2 mL buffer solution). About 18 hours after treatment, the mice were sacrificed and bronchioalveolar lavage (“BAL”) was performed on their lungs. The fluid obtained from the mice via the BAL procedure was analyzed and the inflammatory cell counts and level of inflammatory mediators in the fluid samples was measured as described in Virag et al., Med. Sci. Monit. 10:BR77-83 (2004).

Assay [2] has as its system BALB/c mice. Briefly: LPS-induced chemokine and cytokine response (serum TNF-α, MIP-1α by ELISA). Particulars: for Serum TNF-α mean / Serum MIP-1α mean: serum ninety minutes after LPS. As to the method:
Male BALB/c mice were intraperitoneally administered Compound 54 (at a dose of either 0.3 mg/kg or 1.0 mg/kg) over a 30-minute period. Lipopolysaccharide (LPS) was then administered intraperitoneally at a dose of 1 mg/kg. Ninety minutes after LPS administration, serum was collected and the levels of MIP-1α and TNF-α were analyzed using specific ELISA.
Male BALB/c mice were intraperitoneally administered Compound 34 (at a dose of 0.03 mg/kg or 0.1 mg/kg) over a 30 minute period. Lipopolysaccharide (LPS) was then administered intraperitoneally at a dose of 1 mg/kg. Ninety minutes after LPS administration, serum was collected and the levels of MIP-1α and TNF-α were analyzed using specific ELISA.

Assay [3] concerns mice. Briefly: TPA-induced dermatitis of the ear (ear weight, MPO). The following applies: for Right ear (treated) Mean Weight: 10 μL topical, biopsy six hours after application, normal saline 20.2; for Right ear (treated) MPO: ear biopsy six hours after application, normal saline 18.4; for Difference (right minus left ear weight): normal saline 10.1; for Difference (MPO right minus left ear): normal saline 16.8; for Left ear (untreated) MPO / Left ear (untreated) Mean Weight: left ear DMSO vehicle only. The protocol:
Dermatitis was induced in the right ear of unanesthetized mice via the topical application of 12-O-tetradecanoylphorbol-13-acetate (TPA) (10 μL, 1% in DMSO) on both the inner and outer surfaces of the right ear. The left ear of each mouse had only vehicle (DMSO, 10 μL) topically applied on both the inner and outer surfaces.
Immediately after application of TPA, the mice were topically treated on the inner and outer surfaces of their right ear only with either: (1) Compound 43 (10 μL, 0.1% in normal saline), (2) Compound 43 (10 μL, 0.3% in normal saline), or (3) normal saline (10 μL).
Six hours after the application of Compound 43 or normal saline, the animals were euthanized using CO2 asphyxiation and a ¼ inch biopsy of both the left and right ear was taken and weighed. The biopsy samples were then analyzed for myloperoxidase (MPO) activity as a marker of neutrophil infiltration using standard methods.

Assay [4] concerns Swiss Webster mice. Put plainly: Dextran sodium sulfate-induced colitis. Particulars: for visual score (1-4) of colon damage: 1 = no damage, 4 = extensive damage, vehicle 2; for Colon Length: twice daily by gavage, seven days with DSS, vehicle 3.97; for MDA / MPO: colon biopsy; for MDA: vehicle 8.7; for MPO: vehicle 209. As to the method:
Colitis was induced in Swiss Webster mice by administration of dextran sodium sulfate (DSS) (5%, dissolved in distilled water, molecular weight 30-40 kDa) ad libitum for a total period of seven days. During this seven-day period, and concomitant with the administration of DSS, the mice were separately administered Compound 54 twice daily by gavage at a total daily dose of 0.1 mg/kg/day, 0.3 mg/kg/day or 1 mg/kg/day. At the end of the seventh day of administration of both DSS and Compound 54, the mice were euthanized and their colon was removed, measured, visually analyzed and colon biopsy samples were analyzed for malondialdehyde (MDA) and myeloperoxidase (MPO) levels.

[5] abbreviates: 5 μg per mouse i.p., BAL fluid about 18 hours after treatment.
Setting [6] is: animals given 0.1% on the right ear.
[7] abbreviates: animals given 0.3% on the right ear.

Turning to `CCNC(=O)[C@H]1O[C@@H](n2cnc3c(N)nc(N/N=C/C4CCC=CO4)nc32)[C@H](O)[C@@H]1O` (mixture of isomers) [Compound 34], the “inflammatory cell infiltration into the BAL fluid, reduction” value in assay [1] (5 μg per mouse i.p. after OVA aerosol, BAL about 18 hours after treatment, treated vs. control animals, p<0.01) is 70±19%. In addition, in assay [1] (setting [5]), the “MIP-1α levels, reduction relative to control” value worked out at 74%; the “TNF-α levels, reduction relative to control” value amounted to 30%; the “white blood cell counts, reduction relative to control” value is recorded as 70%. The MIP-1α in assay [1] (BAL fluid, 5 μg per mouse i.p., untreated mice 58 ± 19) is 15 ± 5 pg/mL. Besides, in assay [1] (BAL fluid, 5 μg per mouse i.p., untreated mice 81 ± 27), the TNF-α was 56 ± 18 pg/mL. Also, the “Serum TNF-α mean” value in assay [2] (0.03 mg/kg i.p. before LPS 1 mg/kg i.p., LPS alone 1949) was found to be 814 pg/mL. For the same compound, the “Serum MIP-1α mean” value in assay [2] (0.03 mg/kg i.p. before LPS 1 mg/kg i.p., LPS alone 2544) was 1182 pg/mL. In addition, the “LPS-induced increase in TNF-α and MIP-1α” value in assay [2] (0.03 mg/kg or 0.1 mg/kg i.p.) is recorded as “dose-dependently reduces”. In addition, in assay [2] (0.1 mg/kg i.p. before LPS 1 mg/kg i.p., LPS alone 1949), the “Serum TNF-α mean” value was determined as 552 pg/mL. The “Serum MIP-1α mean” value in assay [2] (0.1 mg/kg i.p. before LPS 1 mg/kg i.p., LPS alone 2544) is 981 pg/mL.
Take `CCNC(=O)[C@H]1O[C@@H](n2cnc3c(N)nc(N/N=C/[C@H]4CCC=CO4)nc32)[C@H](O)[C@@H]1O` [Compound 43]: in assay [3] (0.1% and 0.3% topical, compared to TPA and normal saline), the “MPO levels in the treated right ears” value is reported as “decreased”. Besides, in assay [3] (0.1% and 0.3% topical, compared to animals receiving normal saline only), the “elevated weight in the right ear caused by the TPA-induced dermatitis” value is on record as “reduced in a dose-dependent fashion”. In addition, the “Right ear (treated) Mean Weight” value in assay [3] (0.1% in normal saline) is recorded as 17.7 mg; in assay [3] (0.3% in normal saline) it was 13.6 mg. The entries for the “Right ear (treated) MPO” value in assay [3] (0.1% topical) and in assay [3] (0.3% topical) were 1.04 ug/sample and 3.34 ug/sample, respectively. The entries for the “Difference (right minus left ear weight)” value in assay [3] (0.1% topical) and in assay [3] (0.3% topical) were 5.3 mg and 0.1 mg, respectively. Further, the “Difference (MPO right minus left ear)” value in assay [3] (0.1% topical) amounted to 0.67; in assay [3] (0.3% topical), 1.65. Moreover, the “Left ear (untreated) MPO” value in assay [3] (setting [6]) is reported as 0.37 ug/sample; in assay [3] (setting [7]), 1.69 ug/sample. Further, the “Left ear (untreated) Mean Weight” value in assay [3] (setting [6]) is 12.4 mg; in assay [3] (setting [7]) it was 13.5 mg.
For `CNC(=O)[C@H]1O[C@@H](n2cnc3c(NC)nc(C#N)nc32)[C@H](O)[C@@H]1O` [Compound 54], the “Serum MIP-1α mean” value worked out at 4298 pg/mL in assay [2] (0.3 mg/kg i.p. before LPS 1 mg/kg i.p., LPS alone 4150) and 3906 pg/mL in assay [2] (1.0 mg/kg i.p. before LPS 1 mg/kg i.p., LPS alone 4150). Further, the “Serum TNF-α mean” value was determined as 5733 pg/mL in assay [2] (0.3 mg/kg i.p. before LPS 1 mg/kg i.p., LPS alone 9741) and 3727 pg/mL in assay [2] (1.0 mg/kg i.p. before LPS 1 mg/kg i.p., LPS alone 9741). Besides, in assay [2] (0.3 mg/kg or 1.0 mg/kg i.p.), the “LPS-induced increase in TNF-α and MIP-1α” value is reported as “dose-dependently reduces”. The colon shortening entry in assay [4] (0.1, 0.3 or 1 mg/kg/day, compared to animals treated with vehicle) was “protected against colon shortening”. Further, in assay [4] (0.1, 0.3 or 1 mg/kg/day, dose-dependent, compared to animals treated with vehicle), the “levels of MDA and MPO” value is “lowered”. Further, the “visual score (1-4) of colon damage” value was 1.5 in assay [4] (Dose 0.1 mg/ml), 1.2 in assay [4] (Dose 0.3 mg/ml) and 1.4 in assay [4] (Dose 1 mg/ml). Moreover, the “Colon Length” value stood at 4.95 cm in assay [4] (Dose 0.1 mg/ml), 5.51 cm in assay [4] (Dose 0.3 mg/ml) and 5.87 cm in assay [4] (Dose 1 mg/ml). The MDA in assay [4] (Dose 0.1 mg/ml) was determined as 7.4 nmol/mg protein; in assay [4] (Dose 0.3 mg/ml), 7.4 nmol/mg protein; in assay [4] (Dose 1 mg/ml) it was 4.4 nmol/mg protein. In addition, the MPO in assay [4] (Dose 0.1 mg/ml) came to 345 mμ/mg protein; in assay [4] (Dose 0.3 mg/ml), 138 mμ/mg protein; in assay [4] (Dose 1 mg/ml), 30 mμ/mg protein.
